Test system: HSV-1
Experiment: Efficacy in a cell culture test: HSV-1 infected human keratinocyte primary cultures, virus count by transmission electron microscopy
Type: cell-based
Details: cell culture medium containing 35 wt % D2O; 3 days after infection with HSV-1; 20 keratinocyte cells evaluated
Experimental: After a closed monolayer had formed in the cell culture dish and after desmosomes had developed, human keratinocyte primary cultures produced according to H. M. Reinl et al. (J. Invest. Dermatol. 1995; 105(2):291-5) were incubated with cell culture medium additionally containing 35 wt % D2O (sample) and/or H2O (controls). On the day of incubation, the sample and controls were infected with HSV-1. The infection was accomplished by adding the virus to the cell culture medium (10^7 viruses per cell culture dish in 1 mL cell culture medium). After 3 days (after infection), the sample and control groups were tested for the average number of viral particles per cell. The virus count was performed using a transmission electron microscope according to standard fixation and staining methods (glutaraldehyde and osmium tetroxide). In each case, 20 randomly selected keratinocyte cells from the sample group and the control group were evaluated with regard to the viral particles contained in them.

Structure (SMILES): [2H]O[2H] [D2O, deuterium oxide]
- average virus count (viral particles per cell): 10±4

Reference: patent publication US8609147B2, “Use of deuterium oxide for treatment of herpes virus-based diseases of the skin” (D2 Bioscience Group Ltd., priority 2007, dated 2013)
